In patent US5723306A, “Monoclonal antibodies for the detection of pyrethroids and a process for their production” (Dragerwerk Aktiengesellschaft, priority 1993, dated 1998):

Key:
Format in all cases: binding, mouse
[1] = test system: hybridoma clone MAB 3/B4-1/F8; assay: competitive immunoassay (ELISA), cross reactivity with MAB 3/B4-1/F8; settings: n.b. = not determinable
Method: (§1) The screening conjugates described in Section 1.2 were used for this purpose. In addition, "Maxisorp" (from the Nunc Corporation) microtiter plates were used. The immunoscreening method, i.e., an indirect, competitive immunoassay with free antibodies, is shown in the form of a schematic diagram in FIG. 7. First, each of the microtiter plate depressions was coated with 300 μL of hapten OVA conjugate (10 μg/mL in carbonate buffer) (coating). This was carded out over the course of 15-18 hours at 4° C. Then the depressions were washed 3 times with, for example, PBS Tween 20 buffer. To block the unoccupied bonding sites on the microtiter plate, about 300 μL of 0.1% OVA solution was added to each depression. This batch was incubated for 1-2 hours and then washed again as described. To verify the results, two separate screening processes were used (FIG. 7):
(§2) In this immunoassay, the hapten-OVA conjugates bound in the solid phase (Section 1.2) compete with the free antigen in the form of a solution of a mixture of pyrethroids. For the direct detection (Section 5.1), 100 μL of PBS buffer and 100 μL of cell culture supernatant (Section 4) per depression are incubated for one hour at room temperature under gentle agitation. Then a washing step is carried out with PBS Tween 20 buffer. This is followed by incubation with the peroxidase-(POD)-conjugated anti-mouse antibodies known to those skilled in the art. After the addition of enzyme substrate, the color is developed. The reaction is stopped after 30 minutes with 2N H2 SO4 and evaluated by spectrophotometry. The positive hybridoma cells, which secrete a specific antibody, give a strong color signal.
(§3) For this purpose, 100 μL of analyte solution (10 mg/L of pyrethroid substance in mixture MIX I/II in PBS buffed and 100 μL of culture supernatant (Section 4) per depression in the microtiter plate are incubated for 1 hour at room temperature.
(§4) If the cell culture supernatant contains specific antibodies with high affinity for at least one substance in the mixture in question (MIX I/II), these bind to the free hapten present in excess (pyrethrins/pyrethroids) and not to the hapten conjugate bound in the solid phase. The monoclonal antibodies bound to the hapten are then removed in the following washing step. This is followed by the incubation, known to those skilled in the art, with peroxidase-(POD)-conjugated anti-mouse antibodies and by subsequent addition of enzyme substrate and color development. After a predetermined incubation time, the microtiter plates are evaluated by spectrophotometry. Positive hybridoma cells which secrete an antibody selective for the pyrethroids in MIX I/II give a weaker color signal or no signal at all. Hybridoma cells which secrete antibodies which bind non-specifically to the hapten conjugate cannot be displaced by the excess pyrethroid and give a corresponding color signal. If no antibodies are present in the culture supernatant, there is no color reaction in either of the two cases.
(§5) Pyrethrum, pyrethroids, their derivatives, and/or their metabolites are detected with the help of the hapten screening conjugates and biotin tracers described in Section 1 and by the use of the competitive immunoassay (ELISA) described in Section 5.
(§6) In the direct-competitive test for low-molecular substances such as pyrethroids, a competition for a constant number of antibody binding sites takes place between an unmarked analyte of unknown quantity (here: pyrethroid) and a tracer (marked hapten) of known quantity. The antibody is immobilized on a solid phase. Depending on the amount of unmarked analyte in the sample, the antibody binding sites are occupied to a greater or lesser extent by tracer or analyte. The tracer is detected by a color reaction, which means that the detection signal on the solid phase is inversely proportional to the amount of analyte detected. The color development is measured by spectrophotometry at a defined wavelength. […]

[2] = test system: hybridoma clone MAB 1/E2-5/B5; assay: competitive immunoassay (ELISA), cross reactivity with MAB 1/E2-5/B5; settings: n.b. = not determinable
Method: as §1, §2, §3, §4, §5, §6

[3] = test system: isolated monoclonal antibodies (groups 3/B4-1/F8 and 1/E2-5/B5); assay: competitive ELISA with the isolated monoclonal antibodies (both groups); settings: both antibody groups
Method: as §1, with “This batch was incubated for 1-2 hours and then washed again as described. To verify the results, two separate screening processes were used (FIG. 7):” left out
In this immunoassay, the hapten-OVA conjugates bound in the solid phase (Section 1.2) compete with the free antigen in the form of a solution of a mixture of pyrethroids. […] The reaction is stopped after 30 minutes with 2N H2 SO4 and evaluated by spectrophotometry. […]
If the cell culture supernatant contains specific antibodies with high affinity for at least one substance in the mixture in question (MIX I/II), these bind to the free hapten present in excess (pyrethrins/pyrethroids) and not to the hapten conjugate bound in the solid phase. […] After a predetermined incubation time, the microtiter plates are evaluated by spectrophotometry. […]

## CC(C)=CC1C(C(=O)O)C1(C)C (stereo not shown) [CTS, chrysanthemum acid]
[1]
  % cross reactivity: n.b.
[2]
  % cross reactivity: n.b.

## O=C(O)c1cccc(Oc2ccccc2)c1 [PBZ, 3-phenoxybenzoic acid]
[1]
  % cross reactivity: n.b.
[2]
  % cross reactivity: n.b.

## C=CCC1=C(C)C(OC(=O)C2C(C=C(C)C)C2(C)C)CC1=O (stereo not shown) [allethrin]
[1]
  % cross reactivity: 45%
[2]
  % cross reactivity: 100%

## C=CCC1=C(C)C(OC(=O)[C@@H]2[C@@H](C=C(C)C)C2(C)C)CC1=O (stereo partly shown) [bioallethrin]
[1]
  % cross reactivity: 100%
[2]
  % cross reactivity: 104%

## CC1(C)[C@H](C(=O)O)[C@@H]1C=C(Cl)Cl [cis-PMS, (1R,cis)-permethric acid]
[1]
  % cross reactivity: n.b.
[2]
  % cross reactivity: n.b.
[3]
  cross reactivity (in words): little or no cross-reactivity

## CC1(C)C(C=C(Cl)Cl)C1C(=O)OC(C#N)c1ccc(F)c(Oc2ccccc2)c1 (stereo not shown) [cyfluthrin]
[1]
  % cross reactivity: n.b.

## CC1(C)C(C=C(Cl)Cl)C1C(=O)OC(C#N)c1cccc(Oc2ccccc2)c1 (stereo not shown) [cypermethrin]
[1]
  % cross reactivity: n.b.

## CC1(C)[C@H](C(=O)O[C@H](C#N)c2cccc(Oc3ccccc3)c2)[C@@H]1C=C(Br)Br [deltamethrin]
[1]
  % cross reactivity: n.b.
[2]
  % cross reactivity: n.b.

## CC1(C)[C@H](C=C(Cl)Cl)[C@H]1C(=O)OCc1c(F)c(F)c(F)c(F)c1F [fenfluthrin]
[1]
  % cross reactivity: 2%
[2]
  % cross reactivity: 13%

## CC(C)C(C(=O)OC(C#N)c1cccc(Oc2ccccc2)c1)c1ccc(Cl)cc1 (stereo not shown) [fenvalerat]
[1]
  % cross reactivity: n.b.
[2]
  % cross reactivity: n.b.

## CC1(C)C(C=C(Cl)Cl)C1C(=O)OCc1cccc(Oc2ccccc2)c1 (stereo not shown) [permethrin]
[1]
  % cross reactivity: n.b.

## CC(C)=CC1C(C(=O)OCc2cccc(Oc3ccccc3)c2)C1(C)C (stereo not shown) [phenothrin]
[1]
  % cross reactivity: n.b.
[2]
  % cross reactivity: 86%

## CC1(C)[C@H](C=C(Cl)Cl)[C@H]1C(=O)O [trans-PMS, (1R,trans)-permethric acid]
[1]
  % cross reactivity: n.b.
[2]
  % cross reactivity: > 1%
[3]
  cross reactivity (in words): little or no cross-reactivity
